Assays:
[1] = tested on: M. nivale; test: Suppression of fungal disease on young bentgrass, greenhouse trial; format: in vivo, M. nivale on creeping bentgrass (Agrotis spp.) cv. Penncross; settings: 5,000 and 10,000 ppm
Experimental: Creeping bentgrass (Agrotis spp.) cv. Penncross was used as the host in the greenhouse trials. This species is widely used in golf greens and is easily managed under greenhouse conditions. Bentgrass was seeded in 6 cm diameter and 5 cm height pots (made from PVC pipes) containing steam sterilized river washed sand. A seeding rate of 0.1 g/pot was used to ensure rapid establishment of a uniform, dense stand. Throughout the experiment, the grass was regularly watered, fertilized and maintained at a cutting height approximately 2.0 cm above the soil surface.
Virulent isolates of test fungi were grown on a rye grain medium for approximately one week. This medium consisted of 50 g of rye grain, 1 g of CaCO3, and 75 ml of water. It was prepared in a 250 ml Erlenmeyer flask and autoclaved for 30 minutes. Three to five plugs of the actively growing mycelia from week old cultures on potato dextrose agar were transferred into flasks, and incubated in the dark at room temperature.
Pots of eight-week-old bentgrass were inoculated with the test fungi by placing 2-3 kernels of infected rye in the center of the grass area, just above the soil surface. After inoculation, pots were placed in humidity chambers on a greenhouse bench. Temperature during incubation was maintained at 27-30° C. for disease development and the growth of the test fungi. […]

[2] = tested on: IM082 Botrytis (blueberry, BCMAF F25); test: Inhibition of Botrytis by lysozyme in PD broth, % plate coverage; format: cell-based; settings: for coverage of the petri dishes: day 14
Experimental: (§1) Botrytis was grown in petri dishes on PD agar. Potato dextrose broth was prepared, poured into glass dilution bottles (100 ml each), autoclaved and allowed to cool. […] A fungal square (plug) of each culture was cut and placed in/near the center of each plate. Fungal growth was quantified by measuring the diameter of growth of each fungus while it was growing on the liquid media in each petri dish using a ruler. Each treatment was done in triplicate. The experiment was repeated three times (three batches). The observation period for each batch was 2 weeks.
(§2) The fungal growth was expressed in % coverage of the petri dishes by the fungal patches. The calculation is presented in the following equation:
(§3) Fungal growth (%)=(area of fungal patch/total plate area )×100
(§4) The average plate coverage for each treatment was plotted against the time after inoculation (FIGS. 14-19). Statistical analysis was carried out using SigmaStat (Version 2.0, SPSS Science, 1997).

[3] = tested on: IM080 Botrytis (pepper, BCMAF F24); test: as above; format: cell-based; settings: for average fungal growth (% plate coverage): day 14
Experimental: as §1, §2, §3, §4

[4] = tested on: IM111 Botrytis (blueberry, BCMAF F27); test: as above; format: cell-based; settings: for fungal growth (% plate coverage): day 14
Experimental: as §1, §2, §3, §4

[5] = tested on: IM113 Botrytis cinerea(Pers.); test: as above; format: cell-based; settings: for fungal growth (% plate coverage): day 14
Experimental: as §1, §2, §3, §4

[6] = tested on: IM112 Botrytis cinerea(Pers.); test: as above; format: cell-based
Experimental: as §1, §2, §3, §4

[7] = tested on: IM188 Botrytis cinerea; test: as above; format: cell-based; settings: for fungal growth (% plate coverage): day 14
Experimental: as §1, §2, §3, §4

[8] = tested on: Sclerotinia homoeocarpa; test: Inhibition of Sclerotinia homoeocarpa in potato dextrose broth (area of growth); format: cell-based; settings: 2 weeks after the inoculation
Experimental: Potato dextrose broth was prepared. Fifty ml of the PD broth was added into 100 ml dilution bottles, autoclaved and cooled to room temperature. Various amounts of lysozyme, chitosan, polylysine and avidin were weighed into the bottles. Ten ml of the PD broth with or without the antimicrobials was transferred into sterile petri dishes. A plug of Sclerotinia homoeocarpa (about 6-10 mm square) grown on PD agar was placed into the center of each petri dish. These treatments were all done in triplicates. Fungal growth was monitored by measuring the area of the growth.

[9] = tested on: Phytophthora cinnamomi (IM194); test: Inhibition of Phytophthora by lysozyme in PD broth, % plate coverage; format: cell-based; settings: for fungal growth (% plate coverage): 2 weeks after inoculation
Experimental: Potato dextrose broth was prepared, poured into glass dilution bottles (100 ml each), autoclaved and allowed to cool. […] A fungal square (plug) of each culture was cut and placed in/near the center of each plate. Fungal growth was quantified by measuring the diameter of growth of each fungus while it was growing on the liquid media in each petri dish using a ruler. Each treatment was done in triplicate.
The experiment was repeated three times (three batches). The observation period for each batch was 2 weeks.
The fungal growth was expressed in % coverage of the petri dishes by the fungal patches. The calculation can be presented in the following equation:
Fungal growth (%)=(area of fungal patch/total plate area)×100

Substance: lysozyme: type c egg white lysozyme, enzyme of approximately 129 amino acids; commercially available from Canadian Inovatech, Inc.
- control against M. nivale [1]: good control
- coverage of the petri dishes ([2]; 50 ppm): 65.8%
- coverage of the petri dishes ([2]; 100 ppm): 59.5%
- coverage of the petri dishes ([2]; 250 ppm): 36.1%
- coverage of the petri dishes ([2]; 500 ppm): 19.9%
- coverage of the petri dishes ([2]; 1000 ppm): 14.4%
- lowest concentration that significantly reduced the fungal growth ([2]; p<0.05): 50 ppm
- Minimum lysozyme usage recommended [3]: 250-500 ppm
- average fungal growth (% plate coverage) ([3]; 50 ppm): 77.7%
- average fungal growth (% plate coverage) ([3]; 100 ppm): 79.5%
- fungal growth (% plate coverage) compared to 0, 50 and 100 ppm (Tukey) ([3]; 250, 500 and 1000 ppm): significantly reduced
- average fungal growth (% plate coverage) ([3]; 250 ppm): 38.6%
- average fungal growth (% plate coverage) ([3]; 500 ppm): 25.7%
- average fungal growth (% plate coverage) ([3]; 1000 ppm): 20.8%
- fungal growth (% plate coverage) ([4]; 50 ppm): 33.7%
- fungal growth (% plate coverage) ([4]; 100 ppm): 37.8%
- fungal growth (% plate coverage) ([4]; 250 ppm): 23.5%
- fungal growth (% plate coverage) ([4]; 500 ppm): 18.0%
- lowest concentration that significantly reduced the fungal growth ([4]; p<0.05): 50 ppm
- fungal growth (% plate coverage) ([5]; 50 ppm): 96.9%
- fungal growth (% plate coverage) ([5]; 100 ppm): 90.6%
- fungal growth (% plate coverage) ([5]; 250 ppm): 65.4%
- fungal growth (% plate coverage) ([5]; 500 ppm): 43.0%
- fungal growth (% plate coverage) ([5]; 1000 ppm): 34.7%
- minimum concentration required to effectively inhibit this strain ([5]; p<0.05): 100 ppm
- fungal growth (% plate coverage) ([6]; 50 ppm): 89.4%
- fungal growth (% plate coverage) ([6]; 100 ppm): 90.0%
- fungal growth (% plate coverage) ([6]; 250 ppm): 61.5%
- fungal growth (% plate coverage) ([6]; 500 ppm): 36.2%
- fungal growth (% plate coverage) ([6]; 1000 ppm): 33.9%
- concentration required to significantly reduce the growth ([6]; p<0.05): 100 ppm
- fungal growth (% plate coverage) ([7]; 50 ppm): 87.2%
- fungal growth (% plate coverage) ([7]; 100 ppm): 86.2%
- fungal growth (% plate coverage) ([7]; 250 ppm): 34.0%
- fungal growth (% plate coverage) ([7]; 500 ppm): 16.4%
- fungal growth (% plate coverage) ([7]; 1000 ppm): 11.3%
- concentration at which the fungal growth was significantly reduced ([7]; p<0.05): 100 ppm
- reduction of fungal growth ([8]; 1000 ppm): 35%
- reduction of fungal growth ([8]; 2000 ppm): about 55%
- fungal growth (% plate coverage) ([9]; 50 ppm): 50%
- fungal growth (% plate coverage) ([9]; 100 ppm): 35%
- fungal growth compared with 100, 50 or 0 ppm (Tukey test) ([9]; 250, 500 or 1000 ppm, p<0.05): significantly lower
- fungal growth (% plate coverage) ([9]; 250 ppm): 7%
- fungal growth (% plate coverage) ([9]; 500 ppm): 4%

From patent US20020001582A1, “Methods and compositions for inhibiting microbial growth” (priority 1999, published 2002)
